Key:
NG108-15 cells = test: Antibody staining, BrdU and senescence assays in NG108-15 cells; type: cell-based, mouse/rat; conditions: NG108-15, 6 days
Protocol: Antibody Staining, BrdU and Senescence Assays. NG108-15 cells were plated on PEI and Matrigel coated plates at 15,000 or 30,000 cells/mL, U87 cells at 10,000 cells/mL and grown in imaging media for 6 days with drug treatment. Fresh media was added every 2 days. On day 6, cells were fixed with 4% formaldehyde in PBS for 30 minutes for all antibody staining, except for BrdU which was fixed for 15 minutes, and for the senescence assay which was fixed for 20 min using the Senescence Beta-Galactosidase Staining Kit (9860, CellSignaling) and thereafter stained according to manufacturer's protocol. After fixing, cells were washed twice with PBS, and were permeabilized in PBS with 0.3% Triton-X for 15 min then washed again twice with PBS. The cells for the BrdU assay were additionally treated with 1N HCl for 10 min on ice, followed by a treatment with 2N HCl for 50 min at room temp. Cells were then blocked with standard blocking buffer comprised of TBS containing 10% goat serum, 0.1% BSA, and with 0.05% Tween 20 or without detergent for antibodies against phosphorylated proteins or monoclonal antibodies except for Anti-YAP and Anti-BrdU staining, which were done according to manufacturer's protocol. Primary antibodies were added at the following concentrations: 1:250 anti-S100 beta (GTX129573, Genetex), 1:500 anti-GFAP (AB5804, EMD-Millipore), 1:300 anti-SOX10 (ab155279, Abcam), 1:100 MAP2 (4542, CellSignaling), 1:400 anti-cleaved caspase 3 (9661, CellSignaling), 1:300 anti-Cx43 (STJ2411, St. John's Labratory), 1:800 anti-p27^Kip1 (3698, CellSignaling), 1:150 anti-BrdU (5292, CellSignaling), 1:125 anti-LC3-II (2775, CellSignaling), 8 μg/mL anti-04 (MAB1326, R&D Systems), 1:1000 anti-TH (RPCA-TH, Encor), 1:4000 anti-NSE (RPCA-NSE, Encor), 1:4000 anti-NFM (RPCA-NF-M, Encor), 0.5 μg/mL anti-TujI (801202, Biolegend), 1:400 anti-NF-KB p65 (8242, CellSignaling), 1:125 anti-phospho CREB (05-807, EMD-Millipore), 1:250 anti-vimentin (ab92547, Abcam), 1:125 anti-YAP (14074, CellSignaling). Antibodies were diluted in their respective blocking buffer and incubated overnight at 4° C. The next day, cells were washed with TBS-T or TBS for 3× for 5 min each and secondary antibody was added as follows: 1:1000 donkey anti-mouse 647 (A-31571, Thermo-Fisher) or 1:1000 donkey anti-rabbit 647 (A-31573, Thermo-Fisher). Each were diluted in blocking buffer along with 2.5 μg/mL Hoechst 33342 and incubated for 1 hour at room temperature. Cells were then washed again with TBS-T or TBS for 3× for 5 min each and covered with Gelvatol. Cells were imaged with an EVOS M7000 system, with at least 50% of each well in a 96 well plate imaged and analyzed using a CellProfiler pipeline for measuring integrated intensity, mean intensity, or nuclear to cytoplasmic ratio of mean intensities.

U87 cells = test: Physiological dye staining of U87 cells (DiBAC4(3), pHrodo Green, LysoSensor Green, Fluo-4 AM); type: cell-based, human
Protocol: Dye Staining Protocols. For the Live/Dead assay, 1 μM Calcein Green AM and 0.5 μM ethidium homodimer-1 (L3224, ThermoFisher) were added to PBS along with 10 μg/mL of Hoechst to make the staining solution. Half the media was removed from the human neuronal cells that had been incubated with treatments for 3 days and replaced with staining solution. […] Cells were then incubated for 15 min at 37° C. and imaged. For resting membrane potential staining, DiBAC4(3) was used. U87 cells were seeded at 10,000 cells per mL on Matrigel coated plates as described above. Cells were treated with drugs for 6 days with changes in media every other day. On day 6 the media was removed and washed once with dye buffer consisting of Hank's Balanced Salt Solution (HBSS) with 20 mM HEPES at pH 7.4 and then the staining solution, consisting of dye buffer with 2 μM DiBAC4(3) was added to the cells and allowed to incubate for 30 min at 37° C. The staining solution was then removed and fresh staining solution containing the treatments were added to the cells. For cytoplasmic calcium staining, Fluo-4 AM was used. The staining solution consisted of dye buffer with 4 μM Fluo-4 AM and a 1:1 ratio of Pluronic F-127 (20% in DMSO) and allowed to incubate for 30 min at room temperature. The staining solution was then removed, and fresh dye buffer was added and allowed to incubate for 20 min at 37° C. Then dye buffer containing the treatments were added to the cells. For cytoplasmic pH staining, pHrodo Green was used. The staining solution consisted of dye buffer with a 1:1000 dilution of the pHrodo Green stock and a 1:100 dilution of the PowerLoad concentrate (P35373, ThermoFisher). The cells were allowed to incubate for 30 min at 37° C. Staining solution was removed and washed once with dye buffer then fresh dye buffer containing the treatments were added and allowed to incubate for 5 min at 37° C. Calibration curve was done by instead adding the components of the intracellular pH calibration kit (P35379 ThermoFisher). For lysosomal pH staining, LysoSensor Green was used. The staining solution consisted of dye buffer with a 1 μM dilution of LysoSensor Green DND-187 (L7535 ThermoFisher). The cells were incubated as above and staining solution was removed and replaced with dye buffer containing 2.5 μg/mL Hoechst 33342 for 10 min. Hoechst was removed and cells were washed with dye buffer one time before adding dye buffer containing the treatments. Cells were imaged using an EVOS M7000 system outfitted with a GFP filter cube for stains and a DAPI filter for Hoechst. Images were then analyzed using a CellProfiler pipeline.

[1] = system: human glioblastoma U87 cells; test: Growth and FUCCI assays in U87 cells (cell counts, cell cycle, recovery test); type: cell-based; conditions: for FUCCI cell cycle proportion: U87, day 6; for recovery of proliferation after treatment removed: U87, drugs removed at day 6, followed to day 10
Protocol: U87 (ATCC) cells were cultured under the same conditions as the NG108-15 cells minus the HAT supplement and used at passage 7-10 for experiments.

Structure (SMILES) | cleaved caspase 3 staining (NG108-15 cells) | size of the nuclei (NG108-15 cells) | resting membrane potential by voltage dye DiBAC4(3) (U87 cells; U87, 6 day treated) | cytoplasmic calcium levels (Fluo-4AM) (U87 cells; U87, 6 days) | lysosomal pH (LysoSensor Green) (U87 cells; U87, 6 days) | fold decrease in cell proliferation to control ([1]; U87, 6 days, NS1643 at 50 μM) [fold] | FUCCI cell cycle proportion [1] | recovery of proliferation after treatment removed [1] | BrdU incorporation (NG108-15 cells) | S100B and GFAP markers (NG108-15 cells) | connexin 43 (Cx43) expression (NG108-15 cells) | senescence-associated beta-galactosidase activity stain (NG108-15 cells) | lysosomes (LysoSensor Green signal) (U87 cells; U87, 6 days) | cell proliferation compared to single compound alone ([1]; U87, 6 days) | percent reduction in cells compared to control ([1]; U87, 6 days of treatment) [%]
O=C(Nc1cc(C(F)(F)F)ccc1O)Nc1cc(C(F)(F)F)ccc1O [NS1643] | decrease the cleaved caspase 3 positive cells significantly | significantly larger | significant hyperpolarization | increase cytoplasmic calcium levels | dramatic alkalization of the lysosomes | 1.7 | did not show a large change in proportion of cells | high increase in proliferation | – | – | – | – | – | – | –
COc1ccnc(C[S+]([O-])c2nc3ccc(OC(F)F)cc3[nH]2)c1OC (centres unmarked) [Pantoprazole, pantoprazole] | significant increase in cleaved caspase 3 staining | significantly larger | – | – | did not show an alkalinization of the lysosome | – | increase in the early S proportion of cells | immediately re-entered the cell cycle | significant decrease | significantly upregulated | increase in connexin 43 (Cx43) expression | very significant increase | significant increase in lysosomes | significantly more effective at reducing cell proliferation after 6 days of treatment than TMZ alone | 54

— US20250049747A1, “USE OF HYPERPOLARIZING AGENTS ALONE AND IN COMBINATION WITH OTHER THERAPEUTIC AGENTS FOR TREATING CANCERS INCLUDING GLIOBLASTOMA” (Trustees of Tufts College, priority 2021, published 2025)
